PubChem BioAssay (NCI)
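Five concentrations, 48 hours, 96-well plates. TGI is the concentration that stops growth completely.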

Legend:
Assay in all cases: DTP human tumour cell line panel, 48 h
SNB-75 CNS = test system: SNB-75 CNS
SF-295 CNS = test system: SF-295 CNS
M14 melanoma = test system: M14 melanoma
SR leukemia = test system: SR leukemia
K-562 leukemia = test system: K-562 leukemia
HS 578T breast = test system: HS 578T breast
SK-MEL-28 melanoma = test system: SK-MEL-28 melanoma
786-0 renal = test system: 786-0 renal
KM12 colon = test system: KM12 colon
IGROV1 ovarian = test system: IGROV1 ovarian
NCI-H522 lung = test system: NCI-H522 lung
CCRF-CEM leukemia = test system: CCRF-CEM leukemia
SF-268 CNS = test system: SF-268 CNS
SK-OV-3 ovarian = test system: SK-OV-3 ovarian
MDA-MB-435 = test system: MDA-MB-435
OVCAR-8 ovarian = test system: OVCAR-8 ovarian
ACHN renal = test system: ACHN renal
LOX IMVI melanoma = test system: LOX IMVI melanoma
NCI-H460 lung = test system: NCI-H460 lung
NCI-H23 lung = test system: NCI-H23 lung
TK-10 renal = test system: TK-10 renal
PC-3 prostate = test system: PC-3 prostate
SNB-19 CNS = test system: SNB-19 CNS
OVCAR-5 ovarian = test system: OVCAR-5 ovarian
HT29 colon = test system: HT29 colon
MALME-3M melanoma = test system: MALME-3M melanoma
A549 NSCLC = test system: A549 NSCLC
OVCAR-3 ovarian = test system: OVCAR-3 ovarian
MOLT-4 leukemia = test system: MOLT-4 leukemia
SK-MEL-5 melanoma = test system: SK-MEL-5 melanoma
NCI/ADR-RES ovarian = test system: NCI/ADR-RES ovarian
MDA-N = test system: MDA-N
OVCAR-4 ovarian = test system: OVCAR-4 ovarian
UO-31 renal = test system: UO-31 renal
HCT-116 colon = test system: HCT-116 colon
CAKI-1 renal = test system: CAKI-1 renal
MCF7 breast = test system: MCF7 breast
HOP-92 NSCLC = test system: HOP-92 NSCLC
HOP-62 NSCLC = test system: HOP-62 NSCLC
SW-620 colon = test system: SW-620 colon
U251 CNS = test system: U251 CNS
T-47D breast = test system: T-47D breast
SF-539 CNS = test system: SF-539 CNS
RXF 393 renal = test system: RXF 393 renal
HL-60(TB) leukemia = test system: HL-60(TB) leukemia
SK-MEL-2 melanoma = test system: SK-MEL-2 melanoma
MDA-MB-231 breast = test system: MDA-MB-231 breast
A498 renal = test system: A498 renal
EKVX NSCLC = test system: EKVX NSCLC
RPMI-8226 leukemia = test system: RPMI-8226 leukemia
UACC-62 melanoma = test system: UACC-62 melanoma
COLO 205 colon = test system: COLO 205 colon
HCT-15 colon = test system: HCT-15 colon
UACC-257 melanoma = test system: UACC-257 melanoma
DU-145 prostate = test system: DU-145 prostate
SN12C renal = test system: SN12C renal
HCC-2998 colon = test system: HCC-2998 colon
NCI-H226 lung = test system: NCI-H226 lung
BT-549 breast = test system: BT-549 breast

## Cn1c(N/N=C/c2ccccc2)nc(-c2ccc3c(c2)OCO3)c(C#N)c1=O
SNB-75 CNS
  TGI: > 100 µM
SF-295 CNS
  TGI: > 100 µM
M14 melanoma
  TGI: > 100 µM
SR leukemia
  TGI: > 100 µM
K-562 leukemia
  TGI: > 100 µM
HS 578T breast
  TGI: > 100 µM
SK-MEL-28 melanoma
  TGI: > 100 µM
786-0 renal
  TGI: > 100 µM
KM12 colon
  TGI: > 100 µM
IGROV1 ovarian
  TGI: > 100 µM
NCI-H522 lung
  TGI: > 100 µM
CCRF-CEM leukemia
  TGI: > 100 µM
SF-268 CNS
  TGI: > 100 µM
SK-OV-3 ovarian
  TGI: > 100 µM
MDA-MB-435
  TGI: > 100 µM
OVCAR-8 ovarian
  TGI: 90.6 µM
ACHN renal
  TGI: > 100 µM
LOX IMVI melanoma
  TGI: > 100 µM
NCI-H460 lung
  TGI: > 100 µM
NCI-H23 lung
  TGI: > 100 µM
TK-10 renal
  TGI: > 100 µM
PC-3 prostate
  TGI: > 100 µM
SNB-19 CNS
  TGI: > 100 µM
OVCAR-5 ovarian
  TGI: > 100 µM
HT29 colon
  TGI: > 100 µM
MALME-3M melanoma
  TGI: > 100 µM
A549 NSCLC
  TGI: > 100 µM
OVCAR-3 ovarian
  TGI: 90.6 µM
MOLT-4 leukemia
  TGI: > 100 µM
SK-MEL-5 melanoma
  TGI: > 100 µM
NCI/ADR-RES ovarian
  TGI: > 100 µM
MDA-N
  TGI: > 100 µM
OVCAR-4 ovarian
  TGI: > 100 µM
UO-31 renal
  TGI: > 100 µM
HCT-116 colon
  TGI: > 100 µM
CAKI-1 renal
  TGI: > 100 µM
MCF7 breast
  TGI: > 100 µM
HOP-92 NSCLC
  TGI: 67.2 µM
HOP-62 NSCLC
  TGI: > 100 µM
SW-620 colon
  TGI: > 100 µM
U251 CNS
  TGI: > 100 µM
T-47D breast
  TGI: > 100 µM
SF-539 CNS
  TGI: > 100 µM
RXF 393 renal
  TGI: > 100 µM
HL-60(TB) leukemia
  TGI: > 100 µM
SK-MEL-2 melanoma
  TGI: > 100 µM
MDA-MB-231 breast
  TGI: > 100 µM
A498 renal
  TGI: > 100 µM
EKVX NSCLC
  TGI: > 100 µM
RPMI-8226 leukemia
  TGI: > 100 µM
UACC-62 melanoma
  TGI: > 100 µM
COLO 205 colon
  TGI: > 100 µM
HCT-15 colon
  TGI: > 100 µM
UACC-257 melanoma
  TGI: > 100 µM
DU-145 prostate
  TGI: > 100 µM
SN12C renal
  TGI: > 100 µM

## Cc1ccc(S(=O)(=O)NC(=O)Nc2c(S(N)(=O)=O)cc(S(N)(=O)=O)c(Cl)c2Cl)cc1
SF-295 CNS
  TGI: > 100 µM
M14 melanoma
  TGI: > 100 µM
SR leukemia
  TGI: > 100 µM
K-562 leukemia
  TGI: > 100 µM
HCC-2998 colon
  TGI: > 100 µM
HS 578T breast
  TGI: > 100 µM
SK-MEL-28 melanoma
  TGI: > 100 µM
786-0 renal
  TGI: > 100 µM
KM12 colon
  TGI: > 100 µM
IGROV1 ovarian
  TGI: > 100 µM
NCI-H522 lung
  TGI: > 100 µM
CCRF-CEM leukemia
  TGI: > 100 µM
SF-268 CNS
  TGI: > 100 µM
NCI-H226 lung
  TGI: > 100 µM
SK-OV-3 ovarian
  TGI: > 100 µM
MDA-MB-435
  TGI: > 100 µM
OVCAR-8 ovarian
  TGI: > 100 µM
ACHN renal
  TGI: > 100 µM
LOX IMVI melanoma
  TGI: > 100 µM
NCI-H460 lung
  TGI: > 100 µM
NCI-H23 lung
  TGI: > 100 µM
TK-10 renal
  TGI: > 100 µM
PC-3 prostate
  TGI: > 100 µM
SNB-19 CNS
  TGI: > 100 µM
OVCAR-5 ovarian
  TGI: > 100 µM
HT29 colon
  TGI: > 100 µM
MALME-3M melanoma
  TGI: > 100 µM
A549 NSCLC
  TGI: > 100 µM
OVCAR-3 ovarian
  TGI: > 100 µM
MOLT-4 leukemia
  TGI: > 100 µM
SK-MEL-5 melanoma
  TGI: > 100 µM
NCI/ADR-RES ovarian
  TGI: > 100 µM
MDA-N
  TGI: > 100 µM
OVCAR-4 ovarian
  TGI: > 100 µM
UO-31 renal
  TGI: > 100 µM
HCT-116 colon
  TGI: > 100 µM
CAKI-1 renal
  TGI: > 100 µM
MCF7 breast
  TGI: > 100 µM
HOP-92 NSCLC
  TGI: > 100 µM
SW-620 colon
  TGI: > 100 µM
U251 CNS
  TGI: > 100 µM
SF-539 CNS
  TGI: > 100 µM
HL-60(TB) leukemia
  TGI: > 100 µM
SK-MEL-2 melanoma
  TGI: > 100 µM
MDA-MB-231 breast
  TGI: > 100 µM
A498 renal
  TGI: > 100 µM
EKVX NSCLC
  TGI: > 100 µM
RPMI-8226 leukemia
  TGI: > 100 µM
UACC-62 melanoma
  TGI: > 100 µM
BT-549 breast
  TGI: > 100 µM
HCT-15 colon
  TGI: > 100 µM
UACC-257 melanoma
  TGI: > 100 µM
SN12C renal
  TGI: > 100 µM
